Source: patent publication US6197769A, “Indazole amide compounds as serotoninergic agents” (Aziende Chimiche Riunite Angelini Francesco A.C.R.A.F. …, priority 1997, dated 2001)
Counter-ions that a name gives are not always drawn.

Each compound was assayed against T1, 5-HT4 Receptor (Rattus norvegicus, UniProt Q62758) (assay: Antagonistic action on 5-HT4 receptor: inhibition of serotonin-induced relaxation of rat oesophageal tunica pre-contracted with carbachol). Settings: antagonism, read-out: pA2 (converted).
T1 construct: serotonin-induced relaxation of rat oesophageal tunica; from tissue; host or cells: rat oesophageal tunica
T1 sequence (Q62758 whole entry): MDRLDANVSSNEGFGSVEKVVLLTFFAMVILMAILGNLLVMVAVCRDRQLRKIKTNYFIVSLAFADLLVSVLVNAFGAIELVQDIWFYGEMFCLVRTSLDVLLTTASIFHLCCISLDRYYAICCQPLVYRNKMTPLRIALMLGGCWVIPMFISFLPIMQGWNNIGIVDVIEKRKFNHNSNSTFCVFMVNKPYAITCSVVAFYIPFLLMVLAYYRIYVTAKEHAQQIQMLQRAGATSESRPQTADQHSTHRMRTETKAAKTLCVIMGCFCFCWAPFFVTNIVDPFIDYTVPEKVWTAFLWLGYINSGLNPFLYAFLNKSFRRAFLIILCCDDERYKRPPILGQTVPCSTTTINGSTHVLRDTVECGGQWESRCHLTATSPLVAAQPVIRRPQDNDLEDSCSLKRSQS
Procedure: Antagonistic Action on 5-HT4 Receptor
The antagonistic action of the compounds of the formula (I) was evaluated by testing the influence of the compound under evaluation on serotonin-induced relaxation of rat oesophageal tunica pre-contracted with carbachol according to the method described by J. D. Gale et al. in "Br. J. Pharmacol.", 111, 332-338, (1994).

For `CC(C)n1nc(C(=O)NCC2CCN(CCc3ccccn3)CC2)c2ccccc21` [AFR 605, N3-({1-[2-(2-pyridinyl)ethyl]4-piperidinyl}methyl)-1-isopropyl-1H-3-indazolecarboxamide hydrochloride], which Kb is on record?
The Kb was 0.0158 nM.

With `CC(C)n1nc(C(=O)NCC2CCN(CCCCc3ccccc3)CC2)c2ccccc21` [AFR 603, N3-{[1-(4-phenylbutyl)-4-piperidinyl]methyl}-1-isopropyl-1H-3-indazolecarboxamide oxalate] as the compound, how does the Kb read?
Its Kb is 0.759 nM.

For `CC(C)n1nc(C(=O)NCC2CCN(CCC3CCCCC3)CC2)c2ccccc21` [AFR 604, N3-{[1-(2-cyclohexylethyl)-4-piperidinyl]methyl}-1-isopropyl-1H-3-indazolecarboxamide hydrochloride], which Kb is on record?
Its Kb is 6.46 nM.

`CC(C)n1nc(C(=O)NCC2CCN(CCc3ccccc3)CC2)c2ccccc21` [AFR 306, N3-{[1-(2-phenylethyl)-4-piperidinyl]methyl}-1-isopropyl-1H-3-indazolecarboxamide hydrochloride] was tested. Which Kb did it give?
Its Kb is 0.437 nM.
